# In PMC9288506, “Compounds activating VCP D1 ATPase enhance both autophagic and proteasomal neurotoxic protein clearance” (Nature Communications, 2022):
# Key:
# Assay in all cases: biochemical
# Parameters in all cases: Thermo Fisher in vitro kinase panel, per cent inhibition of kinase activity at 10 uM
# AKT1 (PKB alpha) = AKT1 (PKB alpha) (Homo sapiens, UniProt P31749)
# Description: (§1) Kinase profiling of SMER28 and analogs SMER28 and analogs were tested at 10 µM in a panel of 123 kinases at ThermoFisher Scientific. Follow-up of selected kinases for SMER28 and analogs was also performed at ThermoFisher Scientific. Data are shown in Supplementary Data 2 and 3. […] An inhibition of PIK3C could induce autophagy, mediated by signaling through the AKT/mTOR axis[45].
# AXL = AXL (Homo sapiens, UniProt P30530)
# Description: as §1
# BMX = BMX (Homo sapiens, UniProt P51813)
# Description: as §1
# BRAF = BRAF (Homo sapiens, UniProt P15056)
# Description: as §1
# CDK1/cyclin B = CDK1/cyclin B (Homo sapiens, UniProt P06493)
# Description: as §1
# CDK9/cyclin T1 = CDK9/cyclin T1 (Homo sapiens, UniProt P50750)
# Description: as §1
# DNA-PK = target: T1, DNA-PK (Homo sapiens, UniProt P78527)
# T1 construct: gene PRKDC
# Description: as §1
# EEF2K = EEF2K (Homo sapiens, UniProt O00418)
# Description: as §1
# EPHA5 = EPHA5 (Homo sapiens, UniProt P54756)
# Description: as §1
# FGFR4 = FGFR4 (Homo sapiens, UniProt P22455)
# Description: as §1
# FYN = FYN (Homo sapiens, UniProt P06241)
# Description: as §1
# JAK1 = JAK1 (Homo sapiens, UniProt P23458)
# Description: as §1
# JAK2 = JAK2 (Homo sapiens, UniProt O60674)
# Description: as §1
# LYN A = target: T2, LYN A (Homo sapiens, UniProt P07948)
# T2 construct: isoform A
# Description: as §1
# MAPKAPK5 (PRAK) = MAPKAPK5 (PRAK) (Homo sapiens, UniProt Q8IW41)
# Description: as §1
# PAK2 (PAK65) = PAK2 (PAK65) (Homo sapiens, UniProt Q13177)
# Description: as §1
# PAK4 = PAK4 (Homo sapiens, UniProt O96013)
# Description: as §1
# PAK7 (KIAA1264) = target: T3, PAK7 (KIAA1264) (Homo sapiens, UniProt Q9P286)
# T3 construct: gene PAK5
# Description: as §1
# PIK3C3 (hVPS34) = PIK3C3 (hVPS34) (Homo sapiens, UniProt Q8NEB9)
# Description: as §1
# PRKCA (PKC alpha) = PRKCA (PKC alpha) (Homo sapiens, UniProt P17252)
# Description: as §1
# PRKCE (PKC epsilon) = PRKCE (PKC epsilon) (Homo sapiens, UniProt Q02156)
# Description: as §1
# PTK6 (Brk) = PTK6 (Brk) (Homo sapiens, UniProt Q13882)
# Description: as §1
# RET V804L = RET V804L (Homo sapiens, UniProt P07949, V804L)
# Description: as §1
# RPS6KB1 (p70S6K) = RPS6KB1 (p70S6K) (Homo sapiens, UniProt P23443)
# Description: as §1
# SGK (SGK1) = SGK (SGK1) (Homo sapiens, UniProt O00141)
# Description: as §1
# SRC = SRC (Homo sapiens, UniProt P12931)
# Description: as §1
# Sequence of EEF2K (O00418 whole entry): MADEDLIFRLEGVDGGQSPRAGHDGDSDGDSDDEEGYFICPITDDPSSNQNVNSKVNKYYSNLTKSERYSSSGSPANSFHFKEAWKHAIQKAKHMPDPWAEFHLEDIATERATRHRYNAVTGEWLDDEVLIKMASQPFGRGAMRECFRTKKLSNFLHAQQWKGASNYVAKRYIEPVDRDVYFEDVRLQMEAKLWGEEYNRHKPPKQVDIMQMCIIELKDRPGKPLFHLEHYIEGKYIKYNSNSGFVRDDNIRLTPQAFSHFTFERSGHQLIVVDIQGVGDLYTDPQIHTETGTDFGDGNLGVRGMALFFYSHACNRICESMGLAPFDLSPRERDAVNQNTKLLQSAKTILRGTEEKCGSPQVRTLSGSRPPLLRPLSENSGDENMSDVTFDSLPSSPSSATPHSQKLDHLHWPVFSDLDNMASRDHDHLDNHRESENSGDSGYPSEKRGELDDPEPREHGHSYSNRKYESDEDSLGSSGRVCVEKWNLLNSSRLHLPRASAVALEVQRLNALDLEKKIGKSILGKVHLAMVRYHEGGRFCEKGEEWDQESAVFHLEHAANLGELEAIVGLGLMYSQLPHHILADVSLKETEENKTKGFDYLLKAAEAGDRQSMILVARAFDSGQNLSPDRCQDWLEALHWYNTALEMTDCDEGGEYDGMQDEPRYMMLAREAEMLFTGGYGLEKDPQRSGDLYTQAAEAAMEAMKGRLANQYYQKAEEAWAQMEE
# Sequence of PAK4 (O96013 whole entry): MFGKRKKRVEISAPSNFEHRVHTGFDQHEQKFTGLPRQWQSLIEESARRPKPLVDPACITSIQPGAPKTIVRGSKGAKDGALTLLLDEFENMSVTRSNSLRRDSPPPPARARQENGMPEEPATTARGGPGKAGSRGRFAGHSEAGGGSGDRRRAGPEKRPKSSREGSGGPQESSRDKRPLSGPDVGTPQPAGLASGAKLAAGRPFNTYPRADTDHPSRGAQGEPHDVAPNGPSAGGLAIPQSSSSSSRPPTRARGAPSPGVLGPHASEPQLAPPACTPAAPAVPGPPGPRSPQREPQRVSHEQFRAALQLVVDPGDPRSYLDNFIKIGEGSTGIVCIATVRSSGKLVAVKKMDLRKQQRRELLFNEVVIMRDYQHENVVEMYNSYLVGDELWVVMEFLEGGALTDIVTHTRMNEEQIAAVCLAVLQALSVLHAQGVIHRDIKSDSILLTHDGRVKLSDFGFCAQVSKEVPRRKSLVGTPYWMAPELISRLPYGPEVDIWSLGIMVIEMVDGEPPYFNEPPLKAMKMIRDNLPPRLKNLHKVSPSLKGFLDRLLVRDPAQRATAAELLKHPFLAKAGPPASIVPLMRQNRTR
# Sequence of SRC (P12931 whole entry): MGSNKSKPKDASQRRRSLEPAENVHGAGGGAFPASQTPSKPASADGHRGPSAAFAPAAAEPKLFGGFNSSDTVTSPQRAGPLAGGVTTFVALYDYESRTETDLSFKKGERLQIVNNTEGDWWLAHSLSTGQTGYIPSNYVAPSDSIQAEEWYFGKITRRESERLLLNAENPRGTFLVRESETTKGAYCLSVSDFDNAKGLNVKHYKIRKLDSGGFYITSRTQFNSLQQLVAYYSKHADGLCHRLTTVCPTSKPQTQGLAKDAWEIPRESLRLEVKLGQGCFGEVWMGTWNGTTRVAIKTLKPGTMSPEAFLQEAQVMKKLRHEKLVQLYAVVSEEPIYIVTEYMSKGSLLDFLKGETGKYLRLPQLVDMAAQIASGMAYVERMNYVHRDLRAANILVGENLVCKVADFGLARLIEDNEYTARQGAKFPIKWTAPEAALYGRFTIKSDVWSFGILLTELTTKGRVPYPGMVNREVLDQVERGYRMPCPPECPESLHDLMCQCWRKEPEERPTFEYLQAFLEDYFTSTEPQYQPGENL
# T3 sequence (Q9P286 whole entry): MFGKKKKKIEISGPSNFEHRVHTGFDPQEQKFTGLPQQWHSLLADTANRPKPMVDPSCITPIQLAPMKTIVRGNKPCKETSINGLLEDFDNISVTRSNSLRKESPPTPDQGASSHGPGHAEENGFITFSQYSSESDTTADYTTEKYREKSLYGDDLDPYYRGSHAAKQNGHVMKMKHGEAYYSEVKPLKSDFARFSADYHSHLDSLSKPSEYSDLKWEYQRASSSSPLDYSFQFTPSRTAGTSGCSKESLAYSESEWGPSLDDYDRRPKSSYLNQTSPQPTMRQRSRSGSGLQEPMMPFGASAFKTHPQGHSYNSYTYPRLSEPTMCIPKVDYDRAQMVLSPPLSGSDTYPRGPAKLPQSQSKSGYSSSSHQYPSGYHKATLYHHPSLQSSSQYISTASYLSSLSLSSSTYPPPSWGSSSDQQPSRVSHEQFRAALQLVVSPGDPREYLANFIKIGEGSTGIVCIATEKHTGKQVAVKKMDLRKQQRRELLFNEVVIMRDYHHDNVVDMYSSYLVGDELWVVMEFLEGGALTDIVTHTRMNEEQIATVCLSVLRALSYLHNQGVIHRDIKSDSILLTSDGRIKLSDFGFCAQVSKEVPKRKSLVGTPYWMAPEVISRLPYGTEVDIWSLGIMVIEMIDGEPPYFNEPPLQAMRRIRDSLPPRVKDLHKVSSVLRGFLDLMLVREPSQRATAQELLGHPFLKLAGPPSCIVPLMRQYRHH
# Sequence of RET V804L (P07949 whole entry V804L): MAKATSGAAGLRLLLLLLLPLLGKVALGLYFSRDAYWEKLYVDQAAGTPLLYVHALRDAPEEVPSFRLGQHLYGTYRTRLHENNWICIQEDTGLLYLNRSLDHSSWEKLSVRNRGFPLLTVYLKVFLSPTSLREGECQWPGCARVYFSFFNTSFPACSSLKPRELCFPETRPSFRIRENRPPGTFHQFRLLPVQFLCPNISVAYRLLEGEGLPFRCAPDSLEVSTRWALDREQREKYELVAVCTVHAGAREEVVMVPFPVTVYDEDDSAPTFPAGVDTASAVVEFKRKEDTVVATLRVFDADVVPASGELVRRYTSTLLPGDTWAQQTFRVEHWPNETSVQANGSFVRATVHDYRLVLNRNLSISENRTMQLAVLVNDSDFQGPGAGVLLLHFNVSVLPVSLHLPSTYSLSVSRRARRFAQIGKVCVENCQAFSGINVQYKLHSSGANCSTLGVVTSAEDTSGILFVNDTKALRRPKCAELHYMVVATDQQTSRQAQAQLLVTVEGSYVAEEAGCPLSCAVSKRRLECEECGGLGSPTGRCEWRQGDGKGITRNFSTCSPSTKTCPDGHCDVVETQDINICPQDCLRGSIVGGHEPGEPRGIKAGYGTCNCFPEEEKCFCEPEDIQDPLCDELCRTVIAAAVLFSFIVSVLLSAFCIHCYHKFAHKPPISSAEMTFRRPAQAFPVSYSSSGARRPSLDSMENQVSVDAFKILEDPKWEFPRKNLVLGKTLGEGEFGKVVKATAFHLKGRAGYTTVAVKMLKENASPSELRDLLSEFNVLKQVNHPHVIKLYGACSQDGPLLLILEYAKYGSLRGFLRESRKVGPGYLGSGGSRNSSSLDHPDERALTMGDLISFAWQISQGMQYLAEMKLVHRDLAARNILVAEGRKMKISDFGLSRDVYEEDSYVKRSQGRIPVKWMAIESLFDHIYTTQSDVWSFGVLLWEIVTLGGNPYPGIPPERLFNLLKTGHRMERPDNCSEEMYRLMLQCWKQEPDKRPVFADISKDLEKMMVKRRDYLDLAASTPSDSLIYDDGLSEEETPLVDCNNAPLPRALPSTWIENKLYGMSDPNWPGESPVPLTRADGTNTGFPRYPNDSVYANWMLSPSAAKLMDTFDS
# Sequence of RPS6KB1 (p70S6K) (P23443 whole entry): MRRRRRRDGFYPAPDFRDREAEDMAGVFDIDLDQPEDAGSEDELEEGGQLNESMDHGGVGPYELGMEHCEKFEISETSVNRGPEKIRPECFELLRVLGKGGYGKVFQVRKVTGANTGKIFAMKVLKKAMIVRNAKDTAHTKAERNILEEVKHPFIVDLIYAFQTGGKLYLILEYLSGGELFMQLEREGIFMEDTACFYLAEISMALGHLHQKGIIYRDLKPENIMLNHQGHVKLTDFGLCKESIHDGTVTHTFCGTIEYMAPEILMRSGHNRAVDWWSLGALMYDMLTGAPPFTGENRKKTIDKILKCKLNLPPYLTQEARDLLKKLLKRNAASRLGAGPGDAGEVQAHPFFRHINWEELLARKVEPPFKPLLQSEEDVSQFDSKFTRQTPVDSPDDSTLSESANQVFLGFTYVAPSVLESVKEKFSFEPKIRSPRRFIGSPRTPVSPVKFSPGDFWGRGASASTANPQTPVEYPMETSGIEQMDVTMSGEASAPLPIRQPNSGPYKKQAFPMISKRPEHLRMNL
smiles,measurement,setting,value
C=CCNc1ncnc2ccc(Br)cc12 [SMER28],inhibition at 10 µM,AKT1 (PKB alpha),3%
same,inhibition at 10 µM,AXL,17%
same,inhibition at 10 µM,BMX,11%
same,inhibition at 10 µM,BRAF,13%
same,inhibition at 10 µM,CDK1/cyclin B,22%
same,inhibition at 10 µM,CDK9/cyclin T1,40%
same,inhibition at 10 µM,DNA-PK,37%
same,inhibition at 10 µM,EEF2K,2%
same,inhibition at 10 µM,EPHA5,7%
same,inhibition at 10 µM,FGFR4,7%
same,inhibition at 10 µM,FYN,9%
same,inhibition at 10 µM,JAK1,-13%
same,inhibition at 10 µM,JAK2,3%
same,inhibition at 10 µM,LYN A,20%
same,inhibition at 10 µM,MAPKAPK5 (PRAK),8%
same,inhibition at 10 µM,PAK2 (PAK65),9%
same,inhibition at 10 µM,PAK4,0%
same,inhibition at 10 µM,PAK7 (KIAA1264),7%
same,inhibition at 10 µM,PIK3C3 (hVPS34),12%
same,inhibition at 10 µM,PRKCA (PKC alpha),10%
same,inhibition at 10 µM,PRKCE (PKC epsilon),18%
same,inhibition at 10 µM,PTK6 (Brk),0%
same,inhibition at 10 µM,RET V804L,30%
same,inhibition at 10 µM,RPS6KB1 (p70S6K),22%
same,inhibition at 10 µM,SGK (SGK1),15%
same,inhibition at 10 µM,SRC,2%
